Patent publication US9603869B2, “Lithium co-crystals and an additional neuropsychiatric agent for treatment of neuropsychiatric disorders” (UNIVERSITY OF SOUTH FLORIDA, priority 2015, dated 2017)
Like-named read-outs stand apart in the source and are kept apart here.

Tests used:
N2a cells = assay: Neuronal cell differentiation of N2a cells (β-tubulin III, phospho-synapsin I); format: cell-based, mouse; details: 10 mM, 24 hours; for difference in β-tubulin III and phospho-synapsin I immunofluorescence and WB between Li2CO3, LiCl and L-proline: P>0.05
Description: FIGS. 5A-5C. […] These cells were then permeabilized with 0.05% Triton X-100 for 5 minutes, washed and stained with mouse anti-β-tubulin III monoclonal antibody ([…]™) and rabbit anti-phospho-Synapsin I (Ser^62, Ser^67) polyclonal antibody (EMD Millipore) overnight at 4° C. […] Confocal images were taken by Olympus fluoview FV1000 laser scanning confocal microscope (Tokyo, Japan).
These cells were then permeabilized with 0.05% Triton X-100 for 5 min, washed, and stained with mouse anti-β-tubulin III monoclonal antibody ([…]™) and rabbit anti-phospho-synapsin I (Ser^62, Ser^67) polyclonal antibody (EMD Millipore) overnight at 4° C. […] Confocal images were taken by Olympus Fluoview™ FV1000 laser scanning confocal microscope (Tokyo, Japan) (FIG. 5A).

[1] = tested on: Murine neuronal stem cells; assay: Murine neuronal stem cell differentiation (MAP2, total tau, phospho-synapsin I); format: cell-based, mouse; details: 10 mM, 4 days; for difference in MAP2, phospho-synapsin I and total tau immunofluorescence and WB between Li2CO3, LiCl and L-proline: murine neuronal stem cells, P>0.05
Description: FIGS. 6A-6F. […] These cells were then permeabilized, washed and stained with mouse anti-MAP2 monoclonal antibody (EMD Millipore) or mouse anti-total tau (tau46) antibody overnight at 4° C. […] Confocal images were taken by Olympus fluoview FV1000 laser scanning confocal microscope. […] DAPI staining (Life Technologies) was used to detect nuclear DNA. Confocal images were taken by Olympus Fluoview™ FV1000 laser scanning confocal microscope (FIG. 17A). […] The band density ratios of MAP2 to β-actin, total tau to β-actin, and phospho-synapsin I to β-actin are presented as mean±S.D (FIGS. 17B-1, 17B-2, and 17B-3, respectively).

[2] = tested on: Human neural stem cells (H9-Derived); assay: Human neuronal stem cell differentiation (MAP2, GFAP); format: cell-based; details: 10 mM, 14 days; for difference in MAP2 and GFAP immunofluorescence and WB between Li2CO3, LiCl and L-proline: human neural stem cells, P>0.05
From the text: Human neural stem cells (H9-Derived) were obtained from Life technologies and cultured with StemPro® NSC SFM media. […] DAPI was used to detect nuclear DNA. Confocal images were taken by Olympus Fluoview™ FV1000 laser scanning confocal microscope (FIG. 18A).

[3] = tested on: Mouse primary microglial cells; assay: Autophagy (LC3B staining) in mouse primary microglial cells; format: cell-based; details: 10 mM, 18 hours; for autophagy (LC3B fluorescence intensity of autophagosomes and cytosol): vs PBS control; for difference in fluorescence intensity of autophagosomes and cytosol versus Li2CO3: P>0.05
From the text: FIG. 8. […] The fluorescence intensity of the autophagosomes and the cytosol were quantified using SLIDEBOOK™ digital microscopy software.
The fluorescence intensity of the autophagosomes and the cytosol were quantified using Slidebook™ digital microscopy software (mean±SD) (FIG. 19).

GSK3β [4] = assay: GSK3β phosphorylation Western blot in human renal proximal tubule (HRPT) cells; format: cell-based; details: 0 to 30 mM, 12 hours
COX2 [5] = assay: COX2 expression Western blot in human renal proximal tubule (HRPT) cells; details: 0 to 30 mM, 12 hours
From the text: These cells were then lysed with cell lysis buffer and analyzed by WB for COX2, total GSK3β and phospho GSK3β (Ser9 and Thr390) expression using anti-COX2 antibody (FIG. 7A, ABCAM®) and anti-phospho- and total GSK3β antibodies (FIG. 7B).
These cells were then lysed with cell lysis buffer and analyzed by WB for COX2, total GSK3β and phospho GSK3β (Ser^9) expressions using anti-COX2 antibody (FIG. 20A, Abcam®) and anti-phospho- and total GSK3β antibodies (FIG. 20B).

[6] = tested on: β-amyloid pathology in Tg2576 mice; details: diet 8 weeks, lithium 2.25 mmol/kg/day, Li2CO3 vs control NIH31 diet
Description: All mice received normal drinking water ad libitum. […] Mouse brain tissue sections and homogenates were prepared from each mouse after treatment. Half-brain coronal sections were analyzed by Aβ antibody 4G8 staining (FIG. 14A). Percentage of 4G8 positive plaques (mean±SD) was quantified by image analysis (28, 29) (FIG. 14B). Total soluble and insoluble Aβ40,42 peptides from homogenates were analyzed by ELISA, and represented as picograms of Aβ peptides per mg of total protein (FIG. 14C).

GSK3β [7] = details: Tg2576 mice, diet 8 weeks, 2.25 mmol/kg/day; LISPRO vs Li2CO3-treated, Li2CO3 vs control NIH31 diet
From the text: (§1) Inhibitory phosphorylation status of GSK3β was detected by anti-phospho-GSK3β (Ser^9) [pGSK3β (Ser^9)] antibody.

tau = details: Tg2576 mice, diet 8 weeks, 2.25 mmol/kg/day; LISPRO vs Li2CO3-treated, Li2CO3 vs control NIH31 diet
From the text: as §1

cytokines and sCD40L = details: Tg2576 mice, diet 8 weeks, 2.25 mmol/kg/day
From the text: In addition, spleens from these mice were isolated and splenocytes cultured as described previously (30).

[8] = C57BL/6J mice, diet 1 or 2 weeks, lithium 1.125 or 2.25 mmol/kg/day
Description: All mice received normal drinking water ad libitum. Statistical analysis was carried out following ANOVA analysis.

COX2 [9] = details: Tg2576 mice, diet 8 weeks, lithium 2.25 mmol/kg/day
[10] = rats, 4 mEq/kg lithium, oral gavage
COX2 [11] = details: C57BL/6J male mice, diet 1 or 2 weeks, lithium 1.125 and 2.25 mmol/kg/day
From the text: All mice received normal drinking water ad libitum. Kidneys were collected after treatment and analyzed by immunohistochemistry for COX2 expression in the renal medulla (FIG. 21A). In addition, the kidney microsomal proteins were extracted to assess COX2 expression by WB (FIGS. 21B-1, 21B-2). Data are expressed as mean±SD in duplicates from six mice in each group (FIG. 21B-3).

Aβ40,42 peptides = details: N2a/APPwt cells, LISPRO 0, 2.5, 5 and 10 mM, 12 h
From the text: (§2) FIGS. 1A and 1B. […] The cell lysates were routinely prepared from these cells for Western blot (WB) analysis.

Notch processing = details: N2a/APPwt/Notch-ΔE cells, 0, 2.5, 5 and 10 mM, 5 hours, compared to DFK-167
From the text: as §2

GSK3β [12] = details: 12 hours
Description: FIGS. 2A and 2B. […] Cell lysates were prepared and subjected to WB analysis with specific anti-phospho-GSK3β (Ser9) and total GSK3β antibodies. […] WB results are representative of three independent experiments.
WB results are representative of three independent experiments.

primary microglial cells = tested on: primary microglial cells
Description: FIGS. 4A-4C. […] Data are represented as mean percentage of CD40 expressing cells (±SD). […] Microglial cell culture supernatants were collected and subjected to cytokine ELISA as indicated. Data were represented as mean pg of TNFα or IL-12p70 per mg of total cellular protein (±SD). […] Cellular supernatants and lysates were analyzed for extracellular (top panel) and cell-associated (bottom panel) FITC-Aβ42 using a fluorometer. Data are represented as the relative fold of mean fluorescence change (mean±SD), calculated as the mean fluorescence for each sample at 37° C. divided by mean fluorescence at 4° C.
Data are represented as mean percentage of CD40-expressing cells (±SD) (FIG. 4A). […] Microglial cell culture supernatants were collected and subjected to cytokine ELISA as indicated. Data are represented as mean pg of TNFα or IL-12p70 per mg of total cellular protein (±SD) (FIG. 4B). […] Cellular supernatants and lysates were analyzed for extracellular (top panel) and cell-associated (bottom panel) FITC-Aβ42 using a fluorometer (FIG. 4C). Data are represented as the relative fold of mean fluorescence change (mean±SD), calculated as the mean fluorescence for each sample at 37° C. divided by mean fluorescence at 4° C.

3XTg-AD mice = details: chow 4 months
From the text: In order to reduce potential lithium toxicity in the kidney, a saline bottle will be provided in addition to water in all cages. Behavior of animals in these groups and in non-transgenic untreated wild-type mice will be evaluated after treatment, with a established behavioral battery which measures multiple cognitive domains, including open field, novel object recognition, radial arm water maze, and contextual and cued fear conditioning (42-46).
The behavioral battery will include the Balance Beam Task, to evaluate vestibular and general motor function and account for any problems that may occur with the rest of the tests due to motor (and not behavioral/cognitive) impairment.

[13] = tested on: primary microglia isolated from 3XTg-AD mice; details: microglia from older 3XTg-AD mice treated at minimum dose, vs Li2CO3 or control diet
From the text: The inventors will fully examine microglial pro-inflammatory MAPK, NF-kB and CD40 signaling pathways, cytokine secretion, Aβ phagocytosis capacity, markers of M1 or M2 phenotype and microglial autophagy (IMPase) ex vivo via immunohistochemistry, WB, RT-PCR and Flow analysis in primary microglia isolated from these mice. These methods and assays have been well established as previously published (56, 73, 75). The culturing of primary microglial cells from young and aged mice has been routinely conducted (28, 29, 73).

Molecule	difference in β-tubulin III and phospho-synapsin I immunofluorescence and WB between Li2CO3, LiCl and L-proline (N2a cells)	difference in MAP2, phospho-synapsin I and total tau immunofluorescence and WB between Li2CO3, LiCl and L-proline [1]	difference in MAP2 and GFAP immunofluorescence and WB between Li2CO3, LiCl and L-proline [2]	autophagy (LC3B fluorescence intensity of autophagosomes and cytosol) [3]	GSK3β activity / GSK3β (Ser9) phosphorylation (WB) (GSK3β [4])	β-amyloid pathology (4G8 positive Aβ plaques in brain sections) [6]	difference in GSK3β phosphorylation between Li2CO3 and LiCl (GSK3β [4])	difference in lithium levels in serum and brain homogenate between Li2CO3- and lithium salicylate-treated mice [8]	difference in COX2 expression between Li2CO3 and LiCl (COX2 [5])	difference in fluorescence intensity of autophagosomes and cytosol versus Li2CO3 [3]	other results
O=C(O)[C@@H]1CCCN1 [L-proline]	no notable or significant difference	no significance difference	no significance difference	failed to promote any notable autophagy	no change	–	–	–	–	–	COX2 expression (WB) (COX2 [5]): no change
O=C([O-])[O-].[Li+].[Li+] [Li2CO3, lithium carbonate]	no notable or significant difference	no significance difference	no significance difference	significant enhancement of autophagy	–	no notable or significant difference	no notable differences	no significant difference	no notable differences	–	ratio of pGSK3β (Ser9) to total GSK3β in brain homogenates (GSK3β [7]): no notable and significant difference; ratio of p-tau (Thr231) to total tau in brain homogenates (tau): no notable and significant difference; cytokine levels in plasma and splenocyte cultured media (cytokines and sCD40L; vs control NIH31 diet): no notable or significant difference; kidney (renal) COX2 expression versus control mice (COX2 [9]): enhanced; brain lithium level profile [10]: spike in brain lithium levels at 24 hours; plasma lithium level at 48 hours [10]: nearly undetectable; plasma lithium pharmacokinetic profile [10]: sharp peak and rapid elimination
[Cl-].[Li+] [LiCl]	no notable or significant difference	no significance difference	no significance difference	–	–	–	no notable differences	–	no notable differences	no significance difference	–
O=C([O-])c1ccccc1O.[Li+] [lithium salicylate]	–	–	–	–	–	–	–	no significant difference	–	–	kidney microsomal COX2 expression levels versus control NIH31 diet (COX2 [11]): no significant difference
Lithium Salicylate Proline [LISPRO]	–	–	–	significant enhancement of autophagy	Markedly Reduces GSK3β Activity	Reduces β-Amyloid Pathology	–	–	–	no significance difference	Aβ40, Aβ42 peptides secreted in cell culture media (Aβ generation) (Aβ40,42 peptides): reduces Aβ generation; Notch cleavage (WB, c-myc and cleaved Notch antibodies) (Notch processing): did not inhibit Notch cleavage; phosphorylated GSK3β (Ser9) level (WB) (GSK3β [12]; SH-SY5Y cells): notably elevated; phosphorylated GSK3β (Ser9) level (WB) (GSK3β [12]; primary neuronal cells): notably elevated; anti-inflammatory/Th2 responses (cytokine ELISA) (cytokines and sCD40L; oral): Promotes Anti-Inflammatory/Th2 Responses; sCD40L in the CNS (brain homogenate ELISA) (cytokines and sCD40L; oral): Decreases sCD40L; neuronal cell differentiation (β-tubulin III, phospho-synapsin I) (N2a cells): Markedly Promotes Neuronal Cell Differentiation; murine neuronal stem cell differentiation (MAP2, total tau, phospho-synapsin I) [1]: Enhances Murine Neuronal Stem Cell Differentiation; human neuronal stem cell differentiation (MAP2, GFAP) [2]: Enhances Human Neuronal Stem Cell Differentiation; microglial phagocytosis of Aβ (FITC-Aβ42, extracellular and cell-associated) (primary microglial cells; 10 mM pre-treatment 6 hours, 1 μM aged FITC-Aβ42 1 hour): Enhances Microglial Phagocytosis of Aβ; IFNγ-induced CD40 expression (FACS, percentage of CD40-expressing cells) (primary microglial cells; 8 hours co-treatment): significant dose-dependent decreases; pro-inflammatory microglial activation induced by IFNγ and CD40 signaling (FACS, TNFα and IL-12p70 ELISA) (primary microglial cells; IFNγ or/and CD40L 1 μg/mL, 8 hours): Inhibits Microglial Activation-Induced by IFNγ and CD40 Signaling; effectiveness on abolishing AD-like cognitive impairment (3XTg-AD mice): more effective than equimolar doses of Li2CO3; long-term and short-term memory impairment (behavioral battery) (3XTg-AD mice; prophylactic and therapeutic groups): will reverse or abolish long-term and short-term memory impairment; microglial M2 phenotype ex vivo [13]: will strongly preserve an M2 phenotype
